# Laboratory results: patent US5703079A, “Tetrahydrofuran antifungals” (Schering Corporation, priority 1995, dated 1997)
# Assays:
# Dermatophytes = assay: in vitro antifungal broth dilution, dermatophytes (6 strains); type: cell-based, T. rubrum, T. mentagrophytes, and T. tonsurans; details: for percentages of strains with MFCs ≤1 mcg/ml: Table R; for percentages of strains with MICs ≤1 mcg/ml: Table Q
# Procedure: (§1) The in vitro antifungal activity tests were performed via conventional broth dilution methods in Sabouraud dextrose broth ("SDB") medium and Eagles Minimum Essential Medium ("EMEM") against a large number of fungi. Minimum Inhibitory Concentrations ("MICs") were measured after 24, 48 and 72 hour tests. In many cases, Minimum Fungicidial Concentrations ("MFCS") were measured after 48 and 72 hours.
# Cryptococcus neoformans = assay: in vitro antifungal broth dilution, Cryptococcus neoformans (3 strains); type: cell-based; details: for percentages of strains with MICs ≤1 mcg/ml: Table Q; for percentages of strains with MFCs ≤1 mcg/ml: Table R; for MIC 90: Table S, MIC for 90% of the strains
# Procedure: as §1
# Candida glabrata = assay: in vitro antifungal broth dilution, Candida glabrata (9 strains); type: cell-based; details: for percentages of strains with MICs ≤1 mcg/ml: Table Q; for percentages of strains with MFCs ≤1 mcg/ml: Table R; for MIC 90: Table S, MIC for 90% of the strains
# Procedure: as §1
# [1] = system: Candida tropicalis & stellatoidea; assay: in vitro antifungal broth dilution, Candida tropicalis & stellatoidea (5 strains); type: cell-based; details: for percentages of strains with MICs ≤1 mcg/ml: Table Q; for percentages of strains with MFCs ≤1 mcg/ml: Table R; for MIC 90: Table S, MIC for 90% of the strains
# Procedure: as §1
# Aspergillus = assay: in vitro antifungal broth dilution, Aspergillus (37 strains); type: cell-based, Aspergillus (flavus, fumigatus and other species); details: for percentages of strains with MFCs ≤1 mcg/ml / percentages of strains with MICs ≤1 mcg/ml: Aspergillus, 37 strains; for percentages of strains with MFCs ≤1 mcg/ml: Table R; for percentages of strains with MICs ≤1 mcg/ml: Table Q
# Procedure: as §1
# Candida krusei = assay: in vitro antifungal broth dilution, Candida krusei (16 strains); type: cell-based; details: for percentages of strains with MFCs ≤1 mcg/ml: Table R; for percentages of strains with MICs ≤1 mcg/ml: Table Q
# Procedure: as §1
# Candida albicans = assay: in vitro antifungal broth dilution, Candida albicans (26 strains); type: cell-based; details: for percentages of strains with MICs ≤1 mcg/ml: Table Q; for percentages of strains with MFCs ≤1 mcg/ml: Table R; for MIC 90: Table S, MIC for 90% of the strains
# Procedure: as §1
# [2] = serum levels, half lives and tissue distribution following oral dosing; type: in vivo; details: methyl cellulose formulation, mice, rats, dogs and monkeys
smiles,measurement,setting,value
CCC(C(C)O)n1ncn(-c2ccc(N3CCN(c4ccc(OCC5COC(Cn6cncn6)(c6ccc(F)cc6F)C5)cc4)CC3)cc2)c1=O (centres unmarked) [drawing 27],percentages of strains with MFCs ≤1 mcg/ml,Dermatophytes; listed as drawing 31,100%
same,percentages of strains with MICs ≤1 mcg/ml,Cryptococcus neoformans,100%
same,percentages of strains with MFCs ≤1 mcg/ml,Cryptococcus neoformans,100%
same,MIC 90,Cryptococcus neoformans,.101 MCG/ML
same,percentages of strains with MICs ≤1 mcg/ml,Candida glabrata,33%
same,percentages of strains with MFCs ≤1 mcg/ml,Candida glabrata,22%
same,MIC 90,Candida glabrata,28.8 MCG/ML
same,percentages of strains with MICs ≤1 mcg/ml,[1],100%
same,percentages of strains with MFCs ≤1 mcg/ml,[1],100%
same,MIC 90,[1],.354 MCG/ML
same,percentages of strains with MFCs ≤1 mcg/ml,Aspergillus; listed as drawing 31,89%
same,percentages of strains with MFCs ≤1 mcg/ml,Candida krusei; listed as drawing 31,100%
same,percentages of strains with MICs ≤1 mcg/ml,Candida albicans,100%
same,percentages of strains with MFCs ≤1 mcg/ml,Candida albicans,100%
same,MIC 90,Candida albicans,.139 MCG/ML
CCC(C(C)O)n1ncn(-c2ccc(N3CCN(c4ccc(OCC5COC(Cn6cncn6)(c6ccc(F)cc6F)C5)cc4)CC3)cc2)c1=O (centres unmarked) [drawing 26],percentages of strains with MFCs ≤1 mcg/ml,Dermatophytes; listed as drawing 30,83%
same,percentages of strains with MICs ≤1 mcg/ml,Cryptococcus neoformans,100%
same,percentages of strains with MFCs ≤1 mcg/ml,Cryptococcus neoformans,100%
same,MIC 90,Cryptococcus neoformans,.007 MCG/ML
same,percentages of strains with MICs ≤1 mcg/ml,Candida glabrata,22%
same,percentages of strains with MFCs ≤1 mcg/ml,Candida glabrata,22%
same,MIC 90,Candida glabrata,17.1 MCG/ML
same,percentages of strains with MICs ≤1 mcg/ml,[1],100%
same,percentages of strains with MFCs ≤1 mcg/ml,[1],100%
same,MIC 90,[1],.117 MCG/ML
same,percentages of strains with MFCs ≤1 mcg/ml,Aspergillus; listed as drawing 30,62%
same,percentages of strains with MFCs ≤1 mcg/ml,Candida krusei; listed as drawing 30,94%
same,percentages of strains with MICs ≤1 mcg/ml,Candida albicans,100%
same,percentages of strains with MFCs ≤1 mcg/ml,Candida albicans,100%
same,MIC 90,Candida albicans,.174 MCG/ML
CCC(C(C)O)n1ncn(-c2ccc(N3CCN(c4ccc(OCC5COC(Cn6cncn6)(c6ccc(F)cc6F)C5)cc4)CC3)cc2)c1=O (centres unmarked) [drawing 25],percentages of strains with MICs ≤1 mcg/ml,Dermatophytes,100%
same,percentages of strains with MFCs ≤1 mcg/ml,Dermatophytes; listed as drawing 29,67%
same,percentages of strains with MICs ≤1 mcg/ml,Cryptococcus neoformans,100%
same,percentages of strains with MFCs ≤1 mcg/ml,Cryptococcus neoformans,100%
same,MIC 90,Cryptococcus neoformans,.05 MCG/ML
same,percentages of strains with MICs ≤1 mcg/ml,Candida glabrata,22%
same,percentages of strains with MFCs ≤1 mcg/ml,Candida glabrata,22%
same,percentages of strains with MICs ≤1 mcg/ml,[1],100%
same,percentages of strains with MFCs ≤1 mcg/ml,[1],100%
same,MIC 90,[1],.117 MCG/ML
same,percentages of strains with MICs ≤1 mcg/ml,Aspergillus,100%
same,percentages of strains with MFCs ≤1 mcg/ml,Aspergillus; listed as drawing 29,50%
same,percentages of strains with MICs ≤1 mcg/ml,Candida krusei,100%
same,percentages of strains with MFCs ≤1 mcg/ml,Candida krusei; listed as drawing 29,88%
same,percentages of strains with MICs ≤1 mcg/ml,Candida albicans,100%
same,percentages of strains with MFCs ≤1 mcg/ml,Candida albicans,100%
CCC(C(C)O)n1ncn(-c2ccc(N3CCN(c4ccc(OCC5COC(Cn6cncn6)(c6ccc(F)cc6F)C5)cc4)CC3)cc2)c1=O (centres unmarked) [drawing 24],serum levels compared to azoles of similar structure,[2],consistently higher serum levels
"OC(Cn1cncn1)(Cn1cncn1)c1ccc(F)cc1F [fluconazole, reference compound]",percentages of strains with MICs ≤1 mcg/ml,Dermatophytes,100%
same,percentages of strains with MFCs ≤1 mcg/ml,Dermatophytes,0%
same,percentages of strains with MICs ≤1 mcg/ml,Cryptococcus neoformans,0%
same,percentages of strains with MFCs ≤1 mcg/ml,Cryptococcus neoformans,0%
same,percentages of strains with MICs ≤1 mcg/ml,Candida glabrata,0%
same,percentages of strains with MFCs ≤1 mcg/ml,Candida glabrata,0%
same,percentages of strains with MICs ≤1 mcg/ml,[1],100%
same,percentages of strains with MFCs ≤1 mcg/ml,[1],100%
same,percentages of strains with MICs ≤1 mcg/ml,Aspergillus,0%
same,percentages of strains with MFCs ≤1 mcg/ml,Aspergillus,0%
same,MFC,"Aspergillus; SDB, 37 species of Aspergillus, compared to fluconazole, read-out: geometric mean MFC",≥ 32 µg/mL
same,percentages of strains with MICs ≤1 mcg/ml,Candida krusei,0%
same,percentages of strains with MFCs ≤1 mcg/ml,Candida krusei,0%
same,percentages of strains with MICs ≤1 mcg/ml,Candida albicans,100%
same,percentages of strains with MFCs ≤1 mcg/ml,Candida albicans,100%
